Measured values as given in the supplement of paper PMC10307832.

Tests used:
Test in all cases: relative viability (nuclei count vs DMSO), 5 days (fraction); higher = more cells survive
[1] = compound: C[C@]12O[C@H](C[C@]1(O)CO)n1c3ccccc3c3c4c(c5c6ccccc6n2c5c31)CNC4=O [Lestaurtinib] + Cc1nc(NC(=O)N2CCC[C@H]2C(N)=O)sc1-c1ccnc(C(C)(C)C(F)(F)F)c1 [Alpelisib] (partner 2 µM)
In short: (§1)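 Relative viability divides the nuclei count in treated wells by that in vehicle wells. Lung cancer cell lines were seeded in 1536-well plates, dosed by pin tool the next day, and fixed and stained after 5 days in one step with final 0.05% Triton X-100, 1% formaldehyde and 1 ug/ml Hoechst. Dosing was a single drug or a fixed anchor-drug dose plus five library-drug doses (not always all listed) in √10 steps, and values are medians of duplicate plates imaged at 4×.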

[2] = compound: C[C@]12O[C@H](C[C@]1(O)CO)n1c3ccccc3c3c4c(c5c6ccccc6n2c5c31)CNC4=O [Lestaurtinib] + C[C@@H](Oc1cc(-c2cnn(C3CCNCC3)c2)cnc1N)c1c(Cl)ccc(F)c1Cl [Crizotinib] (partner 1 µM)
In short: as §1

[3] = compound: C[C@]12O[C@H](C[C@]1(O)CO)n1c3ccccc3c3c4c(c5c6ccccc6n2c5c31)CNC4=O [Lestaurtinib] + COc1cccc2cc(-c3nc([C@H]4CC[C@H](C(=O)O)CC4)n4ncnc(N)c34)[nH]c12 [OSI-027] (partner 0.5 µM)
In short: as §1

[4] = compound: C[C@]12O[C@H](C[C@]1(O)CO)n1c3ccccc3c3c4c(c5c6ccccc6n2c5c31)CNC4=O [Lestaurtinib] + COc1cc2c(Oc3ccc(NC(=O)C4(C(=O)Nc5ccc(F)cc5)CC4)cc3F)ccnc2cc1OCCCN1CCOCC1 [Foretinib] (partner 0.25 µM)
In short: as §1

Cell Line: H3255
- relative viability ([1]; first compound 0.005 µM): 0.686
- relative viability ([1]; first compound 0.01581 µM): 0.739
- relative viability ([1]; first compound 0.05 µM): 0.541
- relative viability ([1]; first compound 0.1581 µM): 0.385
- relative viability ([1]; first compound 0.5 µM): 0.296
- relative viability ([2]; first compound 0.005 µM): 0.879
- relative viability ([2]; first compound 0.01581 µM): 0.988
- relative viability ([2]; first compound 0.05 µM): 0.825
- relative viability ([2]; first compound 0.1581 µM): 0.649
- relative viability ([2]; first compound 0.5 µM): 0.461
- relative viability ([3]; first compound 0.005 µM): 0.63
- relative viability ([3]; first compound 0.01581 µM): 0.515
- relative viability ([3]; first compound 0.05 µM): 0.56
- relative viability ([3]; first compound 0.1581 µM): 0.36
- relative viability ([3]; first compound 0.5 µM): 0.276
- relative viability ([4]; first compound 0.005 µM): 0.981
- relative viability ([4]; first compound 0.01581 µM): 0.888
- relative viability ([4]; first compound 0.05 µM): 0.898
- relative viability ([4]; first compound 0.1581 µM): 0.703
- relative viability ([4]; first compound 0.5 µM): 0.419

Cell Line: HARA
- relative viability ([1]; first compound 0.005 µM): 0.769
- relative viability ([1]; first compound 0.01581 µM): 0.825
- relative viability ([1]; first compound 0.05 µM): 0.639
- relative viability ([1]; first compound 0.1581 µM): 0.487
- relative viability ([1]; first compound 0.5 µM): 0.176
- relative viability ([2]; first compound 0.005 µM): 1.19
- relative viability ([2]; first compound 0.01581 µM): 1.21
- relative viability ([2]; first compound 0.05 µM): 0.86
- relative viability ([2]; first compound 0.1581 µM): 0.994
- relative viability ([2]; first compound 0.5 µM): 0.162
- relative viability ([3]; first compound 0.005 µM): 0.629
- relative viability ([3]; first compound 0.01581 µM): 0.469
- relative viability ([3]; first compound 0.05 µM): 0.324
- relative viability ([3]; first compound 0.1581 µM): 0.278
- relative viability ([3]; first compound 0.5 µM): 0.104
- relative viability ([4]; first compound 0.005 µM): 0.958
- relative viability ([4]; first compound 0.01581 µM): 0.856
- relative viability ([4]; first compound 0.05 µM): 0.838
- relative viability ([4]; first compound 0.1581 µM): 0.827
- relative viability ([4]; first compound 0.5 µM): 0.126

Cell Line: HCC-15
- relative viability ([1]; first compound 0.005 µM): 1.02
- relative viability ([1]; first compound 0.01581 µM): 1.06
- relative viability ([1]; first compound 0.05 µM): 0.819
- relative viability ([1]; first compound 0.1581 µM): 0.583
- relative viability ([1]; first compound 0.5 µM): 0.161
- relative viability ([2]; first compound 0.005 µM): 1.04
- relative viability ([2]; first compound 0.01581 µM): 1.01
- relative viability ([2]; first compound 0.05 µM): 0.595
- relative viability ([2]; first compound 0.1581 µM): 0.628
- relative viability ([2]; first compound 0.5 µM): 0.291
- relative viability ([3]; first compound 0.005 µM): 0.717
- relative viability ([3]; first compound 0.01581 µM): 0.757
- relative viability ([3]; first compound 0.05 µM): 0.658
- relative viability ([3]; first compound 0.1581 µM): 0.464
- relative viability ([3]; first compound 0.5 µM): 0.185
- relative viability ([4]; first compound 0.005 µM): 1.11
- relative viability ([4]; first compound 0.01581 µM): 1.13
- relative viability ([4]; first compound 0.05 µM): 0.989
- relative viability ([4]; first compound 0.1581 µM): 0.744
- relative viability ([4]; first compound 0.5 µM): 0.139

Cell Line: HCC-44
- relative viability ([1]; first compound 0.005 µM): 0.782
- relative viability ([1]; first compound 0.01581 µM): 0.973
- relative viability ([1]; first compound 0.05 µM): 0.644
- relative viability ([1]; first compound 0.1581 µM): 0.834
- relative viability ([1]; first compound 0.5 µM): 0.469
- relative viability ([2]; first compound 0.005 µM): 0.878
- relative viability ([2]; first compound 0.01581 µM): 0.822
- relative viability ([2]; first compound 0.05 µM): 0.685
- relative viability ([2]; first compound 0.1581 µM): 0.929
- relative viability ([2]; first compound 0.5 µM): 0.607
- relative viability ([3]; first compound 0.005 µM): 0.548
- relative viability ([3]; first compound 0.01581 µM): 0.654
- relative viability ([3]; first compound 0.05 µM): 0.462
- relative viability ([3]; first compound 0.1581 µM): 0.659
- relative viability ([3]; first compound 0.5 µM): 0.705

Cell Line: HCC-78
- relative viability ([1]; first compound 0.005 µM): 0.349
- relative viability ([1]; first compound 0.01581 µM): 0.328
- relative viability ([1]; first compound 0.05 µM): 0.334
- relative viability ([1]; first compound 0.1581 µM): 0.246
- relative viability ([1]; first compound 0.5 µM): 0.226
- relative viability ([2]; first compound 0.005 µM): 0.318
- relative viability ([2]; first compound 0.01581 µM): 0.396
- relative viability ([2]; first compound 0.05 µM): 0.318
- relative viability ([2]; first compound 0.1581 µM): 0.287
- relative viability ([2]; first compound 0.5 µM): 0.267
- relative viability ([3]; first compound 0.005 µM): 0.34
- relative viability ([3]; first compound 0.01581 µM): 0.417
- relative viability ([3]; first compound 0.05 µM): 0.323
- relative viability ([3]; first compound 0.1581 µM): 0.381
- relative viability ([3]; first compound 0.5 µM): 0.29
- relative viability ([4]; first compound 0.005 µM): 0.51
- relative viability ([4]; first compound 0.01581 µM): 0.494
- relative viability ([4]; first compound 0.05 µM): 0.524
- relative viability ([4]; first compound 0.1581 µM): 0.545
- relative viability ([4]; first compound 0.5 µM): 0.308

Cell Line: HCC-366
- relative viability ([1]; first compound 0.005 µM): 0.477
- relative viability ([1]; first compound 0.01581 µM): 0.438
- relative viability ([1]; first compound 0.05 µM): 0.388
- relative viability ([1]; first compound 0.1581 µM): 0.287
- relative viability ([1]; first compound 0.5 µM): 0.209
- relative viability ([2]; first compound 0.005 µM): 0.711
- relative viability ([2]; first compound 0.01581 µM): 0.649
- relative viability ([2]; first compound 0.05 µM): 0.418
- relative viability ([2]; first compound 0.1581 µM): 0.758
- relative viability ([2]; first compound 0.5 µM): 0.219
- relative viability ([3]; first compound 0.005 µM): 1.03
- relative viability ([3]; first compound 0.01581 µM): 1.03
- relative viability ([3]; first compound 0.05 µM): 0.827
- relative viability ([3]; first compound 0.1581 µM): 0.353
- relative viability ([3]; first compound 0.5 µM): 0.198
- relative viability ([4]; first compound 0.005 µM): 0.939
- relative viability ([4]; first compound 0.01581 µM): 0.924
- relative viability ([4]; first compound 0.05 µM): 0.994
- relative viability ([4]; first compound 0.1581 µM): 1.03
- relative viability ([4]; first compound 0.5 µM): 0.536

Cell Line: IA-LM
- relative viability ([1]; first compound 0.005 µM): 0.967
- relative viability ([1]; first compound 0.01581 µM): 0.964
- relative viability ([1]; first compound 0.05 µM): 1.13
- relative viability ([1]; first compound 0.1581 µM): 1.05
- relative viability ([1]; first compound 0.5 µM): 0.28
- relative viability ([2]; first compound 0.005 µM): 0.862
- relative viability ([2]; first compound 0.01581 µM): 1.06
- relative viability ([2]; first compound 0.05 µM): 1.14
- relative viability ([2]; first compound 0.1581 µM): 0.921
- relative viability ([2]; first compound 0.5 µM): 0.415
- relative viability ([4]; first compound 0.005 µM): 1.37
- relative viability ([4]; first compound 0.01581 µM): 1.4
- relative viability ([4]; first compound 0.05 µM): 1.53
- relative viability ([4]; first compound 0.1581 µM): 1.22
- relative viability ([4]; first compound 0.5 µM): 0.59
